{
  "source": "patent US8435575B2",
  "about": "“Use of gingerols for cancer patients suffering from nausea and emesis induced by chemotherapy” (priority 2010, dated 2013)",
  "origin": "cited, not measured here",
  "key": {"[1]": {"test_system": "vection-induced motion sickness", "details": "college students with self-reported high susceptibility to motion sickness"}, "[2]": {"test_system": "post surgical nausea and vomiting", "details": "oral ginger, 1.25 mg intravenous droperidol; 24 hour period following surgery"}, "[3]": {"test_system": "post-operative nausea and vomiting"}, "[4]": {"test_system": "post operative vomiting and nausea"}},
  "note": "“Also recorded” adds a separate entry of the source.",
  "data": [
    {"smiles": "CN(C)CCOC(c1ccccc1)c1ccccc1", "note": "[diphenhydramine]", "values": [
      {"measurement": "preventing gastrointestinal symptoms caused by vection-induced motion sickness, versus dried chickweed herb placebo", "setting": "[1]", "result": "more effective than dried chickweed herb placebo"}
    ]},
    {"smiles": "O=C(CCCN1CC=C(n2c(=O)[nH]c3ccccc32)CC1)c1ccc(F)cc1", "note": "[droperidol]", "values": [
      {"measurement": "statistically significant decrease in post-operative nausea or vomiting versus placebo", "setting": "[2]", "result": "no differences; also recorded: Neither drug showed a"}
    ]},
    {"smiles": "CCN(CC)CCNC(=O)c1cc(Cl)c(N)cc1OC", "note": "[metochlopramide]", "values": [
      {"measurement": "post-operative nausea and vomiting control versus placebo", "setting": "[3]; 1.0 g ginger or 10 mg metochlopramide orally prior to gynecological surgery, P < .05", "result": "significantly more effective than placebo"},
      {"measurement": "post-operative vomiting versus placebo", "setting": "[3]; both active drugs vs placebo", "result": "less vomiting"},
      {"measurement": "post-operative nausea versus placebo", "setting": "[4]; 1 gram ginger powder or metochlopramide one hour prior to anaesthesia, laparoscopic gynaecological surgery", "result": "significantly more effective than placebo"},
      {"measurement": "patients nauseated", "setting": "[4]; after laparoscopic gynaecological surgery, 41% with placebo", "result": "placebo, 27%"},
      {"measurement": "frequency of emesis between the three arms", "setting": "[4]; ginger vs metochlopramide vs placebo", "result": "no significant differences"}
    ]}
  ]
}
